According to patent US20110111407A1, “METHOD FOR ANALYSING THE EPIGENETIC STATUS OF THE HTRA 1 GENE IN A BIOLOGICAL SAMPLE” (priority 2008, published 2011):
Read-outs that look alike come from different tables or passages of the source.

What was measured:
[1] = system: HtrA1 expression in HCT116 and SW480 cells; assay: HtrA1 expression by quantitative real-time PCR after 5-Aza-dC and TSA treatment; type: cell-based, human; details: HCT116 and SW480 cancer cells treated with 5-Aza-dC (5 μM and 10 μM, 56 h) then 400 nM TSA (16 h) vs solvent only
Experimental: Expression of HtrA1 in HCT116 and SW480 cells treated with 5-Aza-dC and TSA. Cells were treated with 5-Aza-dC and TSA or solvent only. RNA was extracted from the cells followed by reverse transcription. cDNA was analyzed by quantitative real-time PCR.
Cells were seeded at a density of 5×10^5/60 mm dish and allowed to attach over 24 h in a 37° C. incubator in a humified atmosphere with 5% CO2. 5-aza-2′-deoxycytidine was solved in 50% acetic acid. It was added to the medium for a final concentration ranging from 0 to 10 μM for 72 h. At every 24 h interval, fresh medium containing the drug was added. Cells were incubated in a 37° C. incubator in a humified atmosphere with 5% CO2. […]
At the end of the treatment cells were washed twice with PBS and RNA was isolated for analysis of HtrA1 expression using quantitative Real-Time-PCR. […]
Quantitative Real-Time PCR was performed on the RotorGene3000 (Corbett Life Science) using Absolute QPCR SYBR Green Mix (ABgene) according to the manufacturer's instructions. 1 μl of cDNA, 12.5 μl Absolute QPCR SYBR Green Mix and 400 nM of each primer were used for the quantitative real-time PCR reaction. […]
The relative gene expression level of HtrA1 was calculated relative to the GAPDH and PPIA genes according to the method of Pfaffl (Pfaffl Nucleic Acids Res 29:e45 (2001)).

[2] = system: cells; details: cited from earlier work
[3] = biological target: HtrA1 (Homo sapiens, UniProt Q92743); assay: HtrA1 enzymatic activity with p-NA substrate; type: biochemical; details: 25 μM Cytochalasin E, preincubated 10 minutes at 37° C., 0.5 mM p-NA substrate, measured 70 minutes at 405 nm
HtrA1 (Homo sapiens, UniProt Q92743), sequence (Q92743 23-480): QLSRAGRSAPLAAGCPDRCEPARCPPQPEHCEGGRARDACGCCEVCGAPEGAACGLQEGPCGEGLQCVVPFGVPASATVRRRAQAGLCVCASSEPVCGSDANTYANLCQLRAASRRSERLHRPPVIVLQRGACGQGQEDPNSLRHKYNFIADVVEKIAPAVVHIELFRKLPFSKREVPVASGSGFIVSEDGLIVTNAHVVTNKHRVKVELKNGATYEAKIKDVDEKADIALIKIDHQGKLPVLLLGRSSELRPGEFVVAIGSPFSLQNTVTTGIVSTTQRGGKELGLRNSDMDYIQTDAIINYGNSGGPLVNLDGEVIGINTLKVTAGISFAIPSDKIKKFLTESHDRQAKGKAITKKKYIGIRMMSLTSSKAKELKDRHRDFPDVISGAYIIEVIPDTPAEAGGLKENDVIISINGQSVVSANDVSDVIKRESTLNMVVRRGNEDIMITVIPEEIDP
Experimental: HtrA1 activity was determined with a p-NA substrate. HtrA1 was incubated with either DMSO alone or 25 μM Cytochalasin E that was dissolved in DMSO. Reaction was measured spectrophometrically for 70 minutes at 37° C. at 405 nm.
Enzymatic activity of HtrA1 was assayed using acyl p-nitroanilide (p-NA) substrate FANQHLCGSHLVEA-p-NA. HtrA1 (5 μg) was preincubated with Cytochalasin E (25 μM) for 10 minutes at 37° C. Reaction was initiated by adding p-NA substrate at a final concentration of 0.5 mM. The volume of each reaction was 100 μl in 50 mM Tris-HCl pH 8. Reaction was measured continuously in a spectrophotometer for 70 minutes at 37° C. at 405 nm.

[4] = system: p21; assay: p21 RNA level by quantitative RT-PCR after shRNA against HtrA1; type: cell-based, human
Experimental: (§1) Analysis of HtrA1 and p21 expression in U373 (astrocytoma) and SW480 (colon cancer) cells transduced with an shRNA against HtrA1 or an empty vector control. The HtrA1- and p21-RNA level were analysed by quantitative RT-PCR.
(§2) The cell line SW480 derived from human colon adenocarcinoma (DMSZ no. ACC 313) and the cell line U373 MG derived from human glioblastoma astrocytoma (ECACC no. 89081403) were cultured in DMEM (Gibco, Invitrogen) supplemented with 10% fetal bovine serum (FBS) and 1% penicillin-streptomycin at 5% CO2 and 37° C. The media for the stable transduced SW480 cell lines additionally contain 1.8 μg/ml puromycin.
(§3) 4×10^5 SW480 cells/well were seeded into a six-well plate. After two days the six-well plate was 80% confluent and RNA was extracted by using total RNA isolation kit (Macherey-Nagel). RNA was purified with NucleoSpin RNAII columns (Macherey-Nagel) according to the procedure by the manufacturer. […]
(§4) Quantitative RT-PCR was done with Platinum SYBR Green qPCR-superMix-UDG-kit (Invitrogen) with Rotor-Gene RG3000 from Corbett Research. […]
(§5) The total reaction volume was of 25 μl, containing 12.5 μl SYBR Green PCR Master Mix (Invitrogen), 1 μl Primer (4.5 μM each) and 4 μl cDNA (20 ng). […] Melting curve was measured every 5 seconds from 50° C. to 99° C. Gene expression ratios for each sample were calculated as described (Pfaffl, Nucleic Acids Res, 29:e45 (2001)). […]

[5] = system: SW480 cells; assay: Polyploidy of SW480 cells depleted for HtrA1 (FACS, karyotyping); type: cell-based, human
Experimental: A) Polyploidy of SW480 cells depleted for HtrA1/FACS analysis • SW480 (colon cancer) cells were transduced with a shRNA against HtrA1. After some passages cells were analyzed by propidium iodide staining for their DNA content. Gate M1 corresponds to a DNA content of 2n, gate M3 corresponds to a DNA content of 4n and gate M5 corresponds to a DNA content of 8n. […] B) Polyploidy of SW480 cells depleted for HtrA 1/karyo-typing • Metaphase chromosomes of SW480 cell lines transduced with plko empty vector and plko vector containing a shRNA against HtrA1.
Cells were harvested by treatment with trypsin/EDTA. Cells were centrifuged for 5 minutes at 1700 g and 4° C. The pellet was resuspended and washed in 1 ml PBS. Cells were centrifuged again for 5 minutes at 1700 g and 4° C. The supernatant was discarded and the pellet was resuspended in 100 μl PBS. […] After addition of 5 μl RNase A (10 mg/ml) and 15 μl propidium iodide (2 mg/ml, Sigma #P4170), cells were incubated in the dark at 4° C. for 60 minutes and then analysed at the flow cytometer (FACScalibur, BD biosciences) […]
Cell suspensions were dropped onto pre-cleaned, wet, ice-cold glass microscope slides to obtain good spreading of the chromosome sets. […] Intact metaphase cells (those that were not disrupted during the preparation step) were counted for their chromosome numbers at 1000 fold magnification (oil-immersion).

[6] = system: HtrA1; assay: HtrA1 RNA level by quantitative RT-PCR after shRNA transduction; type: cell-based, human; details: U373 and SW480 cells expressing the shRNA vs empty vector control
Experimental: as §1, §2, §3, §4, §5

## Nc1ncn([C@H]2C[C@H](O)[C@@H](CO)O2)c(=O)n1 [5-Aza-dC, 5-Aza-2′-deoxycytidine]
[1]
  HtrA1 expression: large increase in HtrA1 expression

## C=C1[C@@H](C)[C@H]2[C@H](Cc3ccccc3)NC(=O)[C@]23OC(=O)/C=C/[C@H](O)CCC[C@@H](C)C/C=C/[C@H]3[C@@H]1O [Cytochalasin B]
[2]; high amounts
  p21 induction and cell cycle arrest: induce p21 and cell cycle arrest
[2]; large amounts (10 μg/ml)
  cell cycle arrest: cell cycle arrest via p21
  polyploidy: cause polyploidy
[2]; low doses (0.5 μg/ml)
  cell cycle arrest: no cell cycle arrest
  polyploidy: also cause polyploidy
[2]; no concentration stated, by inhibition of actin polymerisation
  polyploidy: causes polyploidy

## C[C@H]1C/C=C/[C@H]2[C@@H]3O[C@]3(C)[C@@H](C)[C@H]3[C@H](Cc4ccccc4)NC(=O)[C@]32OC(=O)O/C=C/[C@@](C)(O)C1=O [Cytochalasin E]
[3]
  HtrA1 activity inhibition: potent HtrA1 inhibitor
[3]; listed as cytochalasin E
  HtrA1 activity inhibition: efficiently inhibits HtrA1

## CC(/C=C/C(=O)NO)=C\[C@@H](C)C(=O)c1ccc(N(C)C)cc1 [TSA, Trichostatin A]
[1]
  HtrA1 expression: large increase in HtrA1 expression

B1: shRNA against HtrA1: hairpin sequence (Seq. ID. No 25/26) in lentiviral plko vector, knocks down HtrA1 (nucleic acid)
sense: CCGGGATCTCAGGAGCGTATATATTCTCGAGAATATATACGCTCCTGAGATCTTTTTG
antisense: CTAGAGTCCTCGCATATATAAGAGCTCTTATATATGCGAGGACTCTAGAAAAACTTAA
[4]; HtrA1 expressed at much lower levels by shRNA
  p21 mRNA levels downregulated by a factor of: 10
[4]; both cell lines (U373, SW480) expressing the shRNA against HtrA1
  P21 level down-regulated: 90%
[5]; SW480 cells vs empty vector
  DNA content by propidium iodide staining (FACS): shift of the main peak from 2n to 4n and a shift of the smaller peak from 4n to 8n
[5]; SW480 cells vs empty vector control
  polyploidy by karyotyping of metaphase chromosomes: higher grade of polyploidy
[6]
  HtrA1 level downregulated: more than 90%
